Results reported in paper PMC10299727, “Identification and Isolation of α-Glucosidase Inhibitors from Siraitia grosvenorii Roots Using Bio-Affinity Ultrafiltration and Comprehensive Chromatography” (International Journal of Molecular Sciences, 2023).
“And” between values parts separate entries of the source, which are not always exact repeats. Identical values can stand only once. Like-named read-outs stand apart in the source and are kept apart here.

Experiments:
α-glucosidase [1] = biological target: T1, α-glucosidase (Saccharomyces cerevisiae, UniProt P53341); test: α-glucosidase inhibitory assay (pNPG substrate, absorbance at 405 nm); format: biochemical
T1 construct: purchased Sigma-Aldrich (Shanghai, China) G5003-100UN
Description: The α-glucosidase inhibitory activity of the S. grosvenorii root extracts was determined using a method mentioned previously, with some modifications to it. Briefly, the sample was dissolved in PBS containing 10% dimethyl sulfoxide. A mixture of the tested sample (50 μL, different concentrations) and α-glucosidase (20 μL, 0.2 U/mL) was placed in a 96-well microplate and incubated at 37 °C for 5 min. Next, 20 μL pNPG (1 mM) was added, and the mixture was further reacted for 30 min at 37 °C and terminated through the addition of […] solution (50 μL, […]). The percentage inhibition of α-glucosidase was determined by measuring the absorbance of the mixture at 405 nm and calculated by Equation (1):Inhibition (%) = [1 − (Ainhibitor − Ablank inhibitor)/(Acontrol − Acontrol blank)] × 100(1) where Ainhibitor, Ablank inhibitor, Acontrol, Acontrol blank are the absorbance values of the potential inhibitor and α-glucosidase, only the potential inhibitor without α-glucosidase, only α-glucosidase, and PBS buffer, respectively.

α-glucosidase [2] = biological target: T1, α-glucosidase; test: Affinity ultrafiltration coupled with HPLC (UF-HPLC), specific binding factor; details: peaks of SGR2 (10 mg/mL) incubated with α-glucosidase; active vs denatured enzyme
Description: Affinity UF was performed as previously described, with slight modifications. Briefly, a PBS solution of SGR2 (10 mg/mL, 800 μL) was mixed with α-glucosidase (1 U/mL, 400 μL) and incubated at 37 °C for 45 min. Next, the mixture was centrifuged at 10,000 rpm for 10 min using a UF membrane with a 10 kDa molecular weight cutoff, to collect the active component and α-glucosidase complexes. The complexes were washed 3 times with 600 μL of PBS (0.1 M, pH 7.2) to remove unbound compounds. A solution of 70% methanol (200 μL) was added to the residue and incubated at 4 °C for 20 min to release the bound compounds. Then, the solution was collected and concentrated to a dry state. Subsequently, the dry residue was further dissolved with 0.2 mL methanol and subjected to HPLC analysis. As a negative control, α-glucosidase was inactivated at 100 °C in a water bath for 10 min. […] The specific binding factors were calculated according to Equation (2):Specific binding factor (%) = (Aa − Ab)/Ac × 100%(2) where, Aa is the peak area of the experiment with active α-glucosidase, Ab is the peak area of the control group with denatured α-glucosidase, and Ac is the peak area of the extract.

T1 sequence (P53341 whole entry): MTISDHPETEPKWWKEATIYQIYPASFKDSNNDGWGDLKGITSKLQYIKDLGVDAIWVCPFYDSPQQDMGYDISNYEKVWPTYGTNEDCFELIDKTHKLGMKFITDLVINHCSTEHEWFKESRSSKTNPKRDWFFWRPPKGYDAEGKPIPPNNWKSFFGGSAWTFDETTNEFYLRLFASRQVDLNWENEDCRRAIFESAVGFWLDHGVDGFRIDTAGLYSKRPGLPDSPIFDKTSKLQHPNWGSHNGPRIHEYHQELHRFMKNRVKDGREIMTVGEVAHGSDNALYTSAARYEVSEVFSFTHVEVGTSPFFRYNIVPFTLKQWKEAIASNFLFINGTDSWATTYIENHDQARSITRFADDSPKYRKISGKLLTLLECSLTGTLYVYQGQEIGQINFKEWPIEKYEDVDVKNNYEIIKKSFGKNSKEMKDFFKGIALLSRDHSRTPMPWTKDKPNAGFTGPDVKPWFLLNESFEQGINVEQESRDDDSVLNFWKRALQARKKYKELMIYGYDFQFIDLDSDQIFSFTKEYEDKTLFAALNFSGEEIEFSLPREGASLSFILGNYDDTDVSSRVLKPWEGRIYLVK

Molecule | inhibition at 1000 µg/mL (α-glucosidase [1]) [%] | Specific Binding Factors Mean ± SD (n = 3) (α-glucosidase [2]) | Inhibition (%) (α-glucosidase [1]; concentration of 1.0 mg/mL compound) | IC50 (α-glucosidase [1]; read-out: IC50) [mM] | IC50 (α-glucosidase [1]) [mM]
C/C(=C\CCC(C)C1CCC2(C)C3CC=C4C(CCC(OC5OC(COC6OC(CO)C(O)C(O)C6O)C(O)C(O)C5O)C4(C)C)C3(C)C(=O)CC12C)C(=O)OC1OC(COC2OC(CO)C(O)C(O)C2O)C(O)C(O)C1O (centres unmarked) [Compound 8, Siraitic acid IV H] | 23.4 ± 1.05 | 0.27 ± 0.18% |  |  | 
Cucurbitacin B [Compound 15] |  | 7.98% and 7.98 ± 1.11% | 50.59 ± 0.98 |  | 
C/C(=C\CCC(C)C1CCC2(C)C3CCC45OCC3(C(=O)CC12C)C4CCC(O)C5C)C(=O)OC1OC(COC2OC(CO)C(O)C(O)C2O)C(O)C(O)C1O (centres unmarked) [Compound 11, Siraitic acid II A] | 50.6 ± 1.23 | 6.59 ± 0.91% |  | 1.24 ± 0.0205 | 
CC(=CCCC(C)C1CCC2(C)C3CCC4=C(C)C(=O)CCC4C3C(=O)CC12C)C(=O)OC1OC(COC2OC(CO)C(O)C(O)C2O)C(O)C(O)C1O (centres unmarked) [Compound 14, Siraitic acid II C] | 72 ± 2.18 | 17.26% and 17.26 ± 3.14% |  | 0.43 ± 0.0133 | 
CC1=C2CCC3C(C)(C(=O)CC4(C)C(C(C)CC/C=C(\C)C(=O)OC5OC(COC6OC(CO)C(O)C(O)C6O)C(O)C(O)C5O)C(OC5OC(CO)C(O)C(O)C5O)CC34C)C2CCC1=O (centres unmarked) [Compound 4, Siraitic acid III E] | 36.74 ± 0.36 | 2.93 ± 0.72% |  |  | 
C/C(=C\CCC(C)C1CCC2(C)C3CCC45OCC3(C(=O)CC12C)C4CCC(=O)C5C)C(=O)OC1OC(COC2OC(CO)C(O)C(O)C2O)C(O)C(O)C1O (centres unmarked) [Compound 12, Siraitic acid II B] | 51.3 ± 0.83 | 6.65 ± 1.18% |  | 1.03 ± 0.0369 | 
CC(=O)OC(C)(C)CCC(=O)[C@](C)(O)[C@H]1[C@H](O)C[C@@]2(C)[C@@H]3CC=C4[C@@H](C[C@H](O)C(=O)C4(C)C)[C@]3(C)C(=O)C[C@]12C [Compound 16, 23,24-dihydrocucurbitacin B] | 27.5 ± 3.8 | 4.70 ± 0.76% |  |  | 
CC(=CCCC(C)C1C(O)CC2(C)C3CCC4=C(C)C(=O)CCC4C3C(=O)CC12C)C(=O)OC1OC(COC2OC(CO)C(O)C(O)C2O)C(O)C(O)C1O (centres unmarked) [Compound 7, Siraitic acid II E] | 58.5 ± 1.19 | 3.46 ± 1.03% |  | 1.207 ± 0.00549 | 
COc1cc(C[C@@H]2CO[C@@H](c3ccc(O)c(OC)c3)[C@@H]2CO)ccc1O [Compound 1, (-)-lariciresinol] | 78.2 ± 1.54 | 4.97 ± 0.15% |  |  | 1.83 ± 0.0313
COc1cc([C@@H]2Oc3c(OC)cc(/C=C/CO)cc3[C@H]2CO)ccc1O [Compound 2, 3,4′-dimethoxy-4,9,9′-trihydroxy-benzofuranolignan-7′-ene] | 63.43 ± 0.23 | 1.87 ± 0.77% |  | 2.275 ± 0.0138 | 
CC1=C2CCC3C(C)(C(=O)CC4(C)C(C(C)CC/C=C(\C)C(=O)OC5OC(CO)C(O)C(O)C5O)C(OC5OC(CO)C(O)C(O)C5O)CC34C)C2CCC1=O (centres unmarked) [Compound 6, Siraitic acid IIb E] | 42.4 ± 0.81 | 3.91 ± 0.17% |  |  | 
CC(=O)OC(C)(C)CCC(=O)[C@](C)(O)C1C(O)C[C@@]2(C)[C@@H]3CC=C4[C@@H](CC(=O)[C@@H](O)C4(C)C)[C@]3(C)C(=O)C[C@]12C (some centres unmarked) [Compound 17, Dihydroisocucurbitacin B-25-acetate] | 23.7 ± 0.33 | 2.28 ± 0.44% |  |  | 
CC(=O)OC(C)(C)CCC(=O)[C@](C)(O)C1[C@H](O)C[C@@]2(C)[C@@H]3CC=C4[C@@H](CC(O)[C@@H](O)C4(C)C)[C@]3(C)C(=O)C[C@]12C (some centres unmarked) [Compound 13, 23,24-dihydrocucurbitacin F-25-acetate] | 21.7 ± 0.58 | 1.31 ± 0.06% |  |  | 
CC(=CCCC(C)C1CCC2(C)C3CCC4=C(C)C(=O)CCC4C3(C)C(=O)CC12C)C(=O)OC1OC(COC2OC(CO)C(O)C(O)C2O)C(O)C(O)C1O (centres unmarked) [Compound 9, Siraitic acid II G] | 53.1 ± 0.99 | 5.33 ± 2.11% |  | 1.581 ± 0.0125 | 
